This is an account of results in paper PMC12470154, “In Vitro Evaluation of Antimicrobial Amyloidogenic Peptides for the Treatment of Early and Mature Bacterial Biofilms” (International Journal of Molecular Sciences, 2025).

In assay [1] the test system is S. aureus (129B strain). In words: Mature biofilms, MTT assay. It is filed as cell-based, Staphylococcus aureus. Set-up: key: ↓: Decrease in the parameter (optical density) compared to the negative control; −: No decrease in the parameter; ↑: Reverse effect (increase in the optical density compared to the control). To be noted: mature biofilm: peptide added after 24 h, further 24 h; 0.01-10 mg/mL. The protocol: (§1) After 24 h of incubation, the medium was removed. To assess the total biofilm biomass, the wells were rinsed with sterile PBS solution and stained with 0.1% crystal violet. The dye bound to the surface was then removed using 95% ethanol. To assess the presence of metabolically active cells, 0.3% MTT (PanEco Ltd., Moscow, Russia) solution was added to each well, and the plates were incubated at 37 °C for 2 h. After incubation, the MTT solution was removed, 150 µL of DMSO (Chimmed, Moscow, Russia) and 25 µL of glycine buffer were added to each well, and the plates were left at room temperature for 15 min. The resulting solutions were transferred to a flat-bottom 96-well plate, and optical density was measured at 595 nm.
(§2) A stationary-phase culture of the tested strain was diluted 100-fold in fresh medium (200 µL per well) and added to the wells of a 96-well round-bottom plate. […] After another 24 h, the medium was removed and the wells were rinsed with sterile PBS to eliminate planktonic cells. The procedures for assessing total biofilm biomass and cell metabolic activity using crystal violet and MTT assays were performed in the same manner as described above for early-stage biofilm experiments.

Assay [2] deals with S. aureus (129B strain). In words: Mature biofilms, MTT assay. To be noted: mature biofilm. It is filed as cell-based, Staphylococcus aureus. The protocol: as §1, §2
In general terms: Tetrazolium dyes change colour on reduction, which living cells bring about.

In the next assay the test system is E. coli (MG1655 strain). In words: Antibacterial activity in liquid medium (optical density). Type of assay: cell-based, Escherichia coli. To be noted: 10 mg/mL.
Assay [3] relates to P. aeruginosa (2943 strain). In words: Mature biofilms, crystal violet staining. It is filed as cell-based, Pseudomonas aeruginosa. Also noted: key: ↓: Decrease in the parameter (optical density) compared to the negative control; −: No decrease in the optical density; ↑: Reverse effect (increase in the optical density compared to the control). To be noted: mature biofilm: peptide added after 24 h, further 24 h, 0.01-10 mg/mL. The protocol:
as §1, §2

The subject of a further assay is MRSA (SA 180-F strain). In words: Mature biofilms, MTT assay. Type of assay: cell-based, methicillin-resistant Staphylococcus aureus. Set-up: key: ↓: Decrease in the parameter (optical density) compared to the negative control; −: No decrease in the optical density; ↑: Reverse effect (increase in the optical density compared to the control). To be noted: mature biofilm: peptide added after 24 h, further 24 h; 0.01-10 mg/mL. The protocol: as §1, §2

For assay [4], the system named is S. aureus (129B strain). In words: Mature biofilms, crystal violet staining. Type of assay: cell-based, Staphylococcus aureus. Also noted: key: ↓: Decrease in the parameter (optical density) compared to the negative control; −: No decrease in the optical density; ↑: Reverse effect (increase in the optical density compared to the control). To be noted: mature biofilm: peptide added after 24 h, further 24 h; 0.01-10 mg/mL. The protocol:
as §1, §2

With “ITDFGIFIGLGGGGSRQIKIWFQNRRMKWKK [I31K^P]”, in the assay with S. aureus (129B strain) [1], the “change of optical density after MTT assay vs negative control” value was “↓ (0.01 mg/mL)”. For the same sequence, in the assay on S. aureus (129B strain) [2] (0.01, 0.1, 1, and 10 mg/mL), the “metabolic activity of cells within mature biofilms (MTT)” value is reported as “decreased the metabolic activity”. Further, the “concentration given with ↓ (MTT)” value in the assay with S. aureus (129B strain) [2] was 0.01 mg/mL.

Consider RKKRRQRRRGGGGITDFGIFIGL [R23L^P], for which the “antimicrobial activity relative to meropenem” value with E. coli (MG1655 strain) was “comparable to that of meropenem”.

Consider “RKKRRQRRRGGGGVTDFGVFVEI [R23I^T, TAT cell-penetrating peptide linked via glycine linker to amyloidogenic fragment of S1 ribosomal protein of T. thermophilus]”, for which the “change of optical density after crystal violet staining vs negative control” value (in assay [3]; in the assay with S. aureus (129B strain) [4]) was “−” in each case. Moreover, the “change of optical density after MTT assay vs negative control” value with MRSA (SA 180-F strain) is reported as “−”.

As to “RKKRRQRRRGGGGVVVHINGGKFGGGGSRQIKIWFQNRRMKWKK [R44K^S]”, the “antimicrobial activity relative to meropenem” value in the assay on E. coli (MG1655 strain) was “comparable to that of meropenem”. For the same sequence, the “change of optical density after crystal violet staining vs negative control” value in assay [3] (listed as R44K^P) is “−”.
